Legend:
[1] = test system: respiratory depression produced by opiate overdose; conditions: cited from earlier work
[2] = test system: patient diagnosed with post-traumatic stress disorder (PTSD); test: higher dose titration schedule of nalmefene in patients diagnosed with PTSD; format: in vivo, human
Protocol: One object of the subject invention is to provide improved benefit to patients diagnosed with PTSD, by employing a higher dose titration schedule for the administration of nalmefene. In accordance with the nalmefene dosing titration schedule of the subject invention, nalmefene is administered at a higher initial dose than the dosing schedule published in the pilot study, and administering nalmefene at the same, higher dose increments at regular intervals described above. Specifically, the subject invention comprises administering nalmefene orally to a PTSD patient at an initial dose of 100 milligrams per day, preferably using 50 milligram doses, twice a day, with increases every 3-4 days of 100 mg per day (50 milligrams twice a day), not to exceed 1000 mg per day (500 mg twice a day).
The subject invention comprises administering, on a dosing titration schedule, nalmefene, to a patient diagnosed with post-traumatic stress disorder (PTSD), using • a starting dose of 100 mg per day, preferably in divided doses of 50 mg twice per day; and • increasing the dose by 100-150 mg per day, every 2-5 days, up to a maximum daily dose of 1000 mg, per day.
Each increase is preferably 100 mg per day, at a divided dose of 50 mg twice per day.
An optimum dose of nalmefene, wherein PTSD symptoms are reduced or reversed, can be achieved within 2-3 weeks for individuals diagnosed with PTSD. The reduced or reversed. PTSD symptoms are based on both clinical observation of the patient and on reporting of reduced or reversed symptoms by the patient.

[3] = compared with naltrexone; cited from earlier work
[4] = test system: combat veterans diagnosed with post-traumatic stress disorder (PTSD); conditions: 18 combat veterans with PTSD; 1 mg twice a day up to 200 mg twice a day; cited from earlier work
liver = conditions: compared with naltrexone; cited from earlier work
[5] = dosing administration schedule of the invention

For C=C1CC[C@@]2(O)[C@H]3Cc4ccc(O)c5c4[C@@]2(CCN3CC2CC2)[C@H]1O5 [nalmefene], the “additional benefit in opiate overdose at higher doses” value ([1]; intravenous doses greater than 1.5 mg) is listed as “do not appear to give any greater benefit”, the “counteracting respiratory depression produced by opiate overdose” value ([1]; intravenous doses) is listed as “effective” and the “adverse reaction with large dose increments” value ([2]; dose increments significantly greater than 50 milligrams twice a day) is listed as “frequent and intense mood swings”. For the same molecule, the “occurrence of fluctuating mood states (anxiety, hostility and rage, depression, paranoia) with dose increases” value [2, 5] was “successful in avoiding the occurrence of fluctuating mood states”, the “time to stabilization of mental state of the PTSD patient” value [2, 5] was “stabilized in a much briefer period of time” and the “emergence of opiate withdrawal symptoms” value ([2]; higher dose of at least 50 mgs twice a day) was “unexpectedly bypassed the emergence of opiate withdrawal symptoms”. For the same molecule, the “time to achieve optimum dose, wherein PTSD symptoms are reduced or reversed” value ([2]; higher dose titration schedule, clinical observation and patient reporting) was 2-3 weeks, the “half-life relative to naltrexone” value [3] was “longer half-life” and the “core symptoms of PTSD (nightmares, intrusive thoughts, flashbacks, avoidance, dissociative amnesia, mistrust, hyper arousal)” value [4] was “significantly improve all core symptoms of PTSD”. For the same molecule, the “symptom of emotional numbness” value [4] was “significantly reduce, and in some cases remit” and the dose-dependent liver toxicity (liver) was “no observed dose-dependent liver toxicity”.

— patent publication US10987350B2, “Method for treating post-traumatic stress disorder” (priority 2017, dated 2021)
